Results reported in article PMC7324419 (Human Cell, 2020).

Key:
[1] = test system: A549 cell line (lung carcinoma from human); type: cell-based; details: read-out: IC50 [µM] against A549
[2] = test system: HT29 cell line (colorectal adenocarcinoma from human); type: cell-based; details: read-out: IC50 [µM] against HT29
[3] = test system: EAhy926 cell line (the human umbilical vein, somatic cell hybrid); type: cell-based; details: read-out: IC50 [µM] against EA.hy9263
[4] = molecular target: hyaluronidase from bovine testes Type I-S (Bos taurus, UniProt Q2YDK3); type: biochemical; details: read-out: IC50 (µM) hyaluronidase inhibition
hyaluronidase from bovine testes Type I-S, sequence (Q2YDK3 36-553 limits assumed): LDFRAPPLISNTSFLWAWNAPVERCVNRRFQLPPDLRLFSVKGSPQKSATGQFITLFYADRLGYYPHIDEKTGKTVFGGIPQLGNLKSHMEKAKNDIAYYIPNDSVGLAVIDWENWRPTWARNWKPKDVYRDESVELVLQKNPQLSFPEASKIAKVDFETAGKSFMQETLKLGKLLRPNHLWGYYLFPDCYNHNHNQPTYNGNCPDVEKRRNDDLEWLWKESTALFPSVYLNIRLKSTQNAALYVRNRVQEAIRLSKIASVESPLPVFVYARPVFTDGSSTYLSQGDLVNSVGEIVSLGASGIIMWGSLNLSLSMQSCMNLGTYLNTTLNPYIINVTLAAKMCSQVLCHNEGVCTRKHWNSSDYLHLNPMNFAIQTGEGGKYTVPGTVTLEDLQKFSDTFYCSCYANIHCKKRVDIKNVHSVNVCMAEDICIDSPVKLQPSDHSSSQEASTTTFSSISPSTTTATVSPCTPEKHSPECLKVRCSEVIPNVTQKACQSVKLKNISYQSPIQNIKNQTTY

| Compound | IC50 [1] | IC50 [2] | IC50 [3] | IC50 [4] |
| --- | --- | --- | --- | --- |
| O=C(NCCCNc1c2c(nc3ccccc13)CCCC2)c1cccc(F)c1 [Compound 5] | 118 µM | 44 µM | – | – |
| O=c1[nH]cc(F)c(=O)[nH]1 [Compound C2, 5-fluorouracil] | > 1800 µM | 1630 µM | > 1800 µM | – |
| heparin [Compound C3] | – | – | – | 56.4 µM |
| O=C(NCCNc1c2c(nc3ccccc13)CCCC2)c1ccccc1F [Compound 1] | 106 µM | 68.4 µM | – | – |
| COc1cc([C@@H]2c3cc4c(cc3[C@@H](O[C@@H]3O[C@@H]5CO[C@@H](C)O[C@H]5[C@H](O)[C@H]3O)[C@H]3COC(=O)[C@H]23)OCO4)cc(OC)c1O [Compound C1, Etoposide] | 451 µM | 654 µM | 155 µM | – |
| O=C(NCCCNc1c2c(nc3ccccc13)CCCC2)c1ccccc1F [Compound 2] | 148 µM | 50.2 µM | – | – |
